# Measurements from patent US8247426B2, “Crystalline irinotecan hydrochloride and methods for its preparation” (Antibioticos S.p.A., priority 2008, dated 2012).
# Where a name gives a salt, the structure may show the parent alone.
# Assay: solubility in water at room temperature
# Format: physicochemical
structure (smiles),measurement,value
"CCc1c2c(nc3ccc(OC(=O)N4CCC(N5CCCCC5)CC4)cc13)-c1cc3c(c(=O)n1C2)COC(=O)[C@]3(O)CC [form H, irinotecan hydrochloride]",solubility,> 20 mg/mL
